The test system of experiment [1] is log phase Escherichia coli and Klebsiella pneumoniae. The experiment in a line: chequerboard method, MIC alone and in combination, log phase bacteria. The format is cell-based. The note with it: for MIC before combination: single agent, chequerboard. From the text:
In relation to (b) above, methods for determining activity against log phase bacteria include a determination, under standard conditions (i.e. conditions known to those skilled in the art, such as those described in WO 2005014585, the disclosures of which document are hereby incorporated by reference), of Minimum Inhibitory Concentration (“MIC”) or Minimum Bactericidal Concentration (“MBC”) for a test compound. Specific examples of such methods are described below. In Vitro Activity of Zidovudine Combined Together with Colistin Against Log Phase Escherichia coli and Klebsiella pneumoniae Using Chequerboard Method

The next experiment concerns log phase Klebsiella. The experiment in a line: time kill curve against log phase Klebsiella. Format: cell-based.

With `Cc1cn([C@H]2C[C@H](N=[N+]=[N-])[C@@H](CO)O2)c(=O)[nH]c1=O` [HT0120663, Zidovudine], the “MIC of HT0120663 in combination” value in experiment [1] (combined with 2 μg/ml of colistin) came out at 1 µg/mL. Further, the MIC before combination in experiment [1] was found to be 4 µg/mL. Besides, the “time kill outcome after 6 hours” value with log phase Klebsiella (HT0120663 at 4 μg/ml, after the 6 hour kill) is listed as “regrowth of the bacteria”. The log kill entry in the experiment on log phase Klebsiella (HT0120663 at 4 μg/ml, at 6 hours) is recorded as “about 1 log”.

Take Colistin: in experiment [1] (combined with 2 μg/ml of HT0120663), the “MIC of colistin in combination” value worked out at 0.25 µg/mL. In addition, the MIC before combination in experiment [1] is 4 µg/mL. Further, in the experiment on log phase Klebsiella (Colistin at 16 μg/ml), the time kill outcome is given as “inhibition up to 6 hours”.

These data come from patent publication US9757427B2, “Combination comprising zidovudine and polymyxin” (HELPERBY THERAPEUTICS LIMITED, priority 2013, dated 2017).
